Experimental findings from publication PMC6752721 (Chembiochem : a European journal of chemical biology, 2019) are described below.

In series [1] the test system is HeLa cells. Briefly: Cytosolic entry efficiency of naphthofluorescein. Format: cell-based. As to conditions: 10% FBS, flow cytometry; for fold decrease in CPP activity (cellular entry efficiency) relative to peptide 4 / fold increase in CPP activity (cellular entry efficiency) relative to peptide 4: 5 μM NF-labeled peptide, 2 h.
The subject of series [2] is HeLa cells. As to the kind of experiment: MTT cytotoxicity assay. The format is cell-based.

Structures are written as SMILES. Where a SMILES comes first, the peptide text is derived from it. [ ]: non-standard residue; d: D form. The star is where a group is joined. Decanoyl = CCCCCCCCCC(=O)*; Orn = NCCC[C@H](N)C(=O)O; Dap = NC[C@H](N)C(=O)O; NHDecyl = CCCCCCCCCCN*

As to `CCCCCCCCCC(=O)NC[C@@H]1NC(=O)[C@H](CCC(N)=O)NC(=O)[C@@H](CCCNC(=N)N)NC(=O)[C@H](CCCNC(=N)N)NC(=O)[C@@H](CCCNC(=N)N)NC(=O)[C@H](CCCNC(=N)N)NC1=O` [compound 9] (cyclo([Dap](Decanoyl)R[dR]R[dR]Q)), the “fold decrease in CPP activity (cellular entry efficiency) relative to peptide 4” value with HeLa cells [1] is recorded as ~ 3 fold.
The same measure, in the same setting: for `CCCCCCCCCC(=O)NC[C@@H]1NC(=O)[C@H](CCC(N)=O)NC(=O)[C@H](CCCNC(=N)N)NC(=O)[C@@H](CCCNC(=N)N)NC(=O)[C@H](CCCNC(=N)N)NC(=O)[C@@H](CCCNC(=N)N)NC1=O` [compound 10] (cyclo([Dap](Decanoyl)[dR]R[dR]RQ)) the value was ~ 3 fold; for `CCCCCCCCCC(=O)NC[C@@H]1NC(=O)[C@H](CCC(N)=O)NC(=O)[C@H](CCCNC(=N)N)NC(=O)[C@H](CCCNC(=N)N)NC(=O)[C@H](CCCNC(=N)N)NC(=O)[C@H](C)NC1=O` [compound 12] (cyclo(ARRRQ[Dap](Decanoyl))), ~ 2 fold.
`CCCCCCCCCC(=O)NCCC[C@@H]1NC(=O)[C@H](CCC(N)=O)NC(=O)[C@H](CCCNC(=N)N)NC(=O)[C@H](CCCNC(=N)N)NC(=O)[C@H](CCCNC(=N)N)NC(=O)[C@H](CCCNC(=N)N)NC1=O` [compound 15] (cyclo([Orn](Decanoyl)RRRRQ)): the “fold increase in CPP activity (cellular entry efficiency) relative to peptide 4” value with HeLa cells [1] is on record as 2 fold.
With `CCCCCCCCCC(=O)NC[C@@H]1NC(=O)[C@H](CCC(N)=O)NC(=O)[C@H](CCCNC(=N)N)NC(=O)[C@H](CCCNC(=N)N)NC(=O)[C@H](CCCNC(=N)N)NC(=O)[C@H](CCCNC(=N)N)NC(=O)[C@H](CCCNC(=N)N)NC1=O` [peptide 14], the “fold decrease in CPP activity (cellular entry efficiency) relative to peptide 4” value with HeLa cells [1] is about 5 fold.
Turning to `CCCCCCCCCC(=O)NCCCC[C@@H]1NC(=O)[C@H](CCC(N)=O)NC(=O)[C@H](CCCNC(=N)N)NC(=O)[C@H](CCCNC(=N)N)NC(=O)[C@H](CCCNC(=N)N)NC(=O)[C@H](CCCNC(=N)N)NC1=O` [peptide 16] (cyclo(K(Decanoyl)RRRRQ)), the “fold increase in CPP activity (cellular entry efficiency) relative to peptide 4” value in the series on HeLa cells [1] was 1.3 fold.
For `CCCCCCCCCCNC(=O)C[C@@H]1NC(=O)[C@H](CCC(N)=O)NC(=O)[C@H](CCCNC(=N)N)NC(=O)[C@H](CCCNC(=N)N)NC(=O)[C@H](CCCNC(=N)N)NC(=O)[C@H](CCCNC(=N)N)NC1=O` [peptide 17] (cyclo(D(NHDecyl)RRRRQ)), in the series with HeLa cells [2] (≤25 μM peptide, not concentration-dependent), the “reduction of cell viability” value was ~ 30%. Further, the “effect on cell viability at higher concentrations” value in the series on HeLa cells [2] (≥50 μM peptide) is listed as “significant loss of HeLa cell viability”. In the series with HeLa cells [1], the “fold increase in CPP activity (cellular entry efficiency) relative to peptide 4” value was ~ 5 fold and the “fold more active than CPP12 (cellular entry efficiency)” value amounted to 2.8 fold.
